Earlier results on four compounds are cited in PMC3532212 (PLoS ONE, 2012).

One data set relates to disease-relevant model. Set-up: method as in PMID 15642767. Particulars: cited from earlier work.
The subject of another data set is anesthetized guinea pigs. Set-up: method as in PMID 15642767. Particulars: i.v. bolus, highest tested dose 0.03 mg/kg/d; cited from earlier work.
A further data set relates to Wistar rats. More on the design: method as in PMID 17006328. Particulars: cited from earlier work.
The next data set relates to S1P1 receptor. Set-up: method as in PMID 15975516. Particulars: cited from earlier work.
The next data set relates to mice. Set-up: method as in PMID 14747617. Particulars: wild type mice; cited from earlier work.
Data set [1] relates to FTY720-induced bradycardia. More on the design: method as in PMID 20097776. Particulars: in vivo; cited from earlier work.

With `NC(CO)(CO)CCc1ccc(Sc2cccc(OCc3ccccc3)c2)cc1Cl` [KRP-203], the “efficacious dose in a disease-relevant model” value in the data set with disease-relevant model is 0.1 to 1.0 mg/kg/day. In addition, the “effect on heart rate” value with anesthetized guinea pigs and in the data set on Wistar rats (0.03 mg/kg) was “no effect on heart rate” each time. In the data set on Wistar rats (0.1 and 0.3 mg/kg), the “acute bradycardia, heart rate below baseline” value is given as about 150 beats/min.

In the case of `FC(F)(F)c1cccc(-c2noc(-c3cc(-c4ccccc4)c(C(F)(F)F)s3)n2)c1` [SEW2871], the S1P1 receptor internalization entry in the data set on S1P1 receptor is on record as “elicit S1P1 receptor internalization”.

As to `CCCCCCCCCCCCC/C=C/[C@@H](O)[C@@H](N)COP(=O)(O)O` [S1P, Sphingosine-1-phospate], the “effect on heart rate” value in the data set with mice is reported as “reductions in heart rate”.

`CC(C)(C)C(=O)C(=Nc1ccc(Cl)cc1)NNc1ccc(Cl)cc1` [TY-52156]: the “effect on FTY720-induced bradycardia” value in data set [1] is “partially inhibit”.
